{
  "source": "patent US10716869B2",
  "about": "“Radiolabeled macrocyclic EGFR inhibitor” (Oncodesign SA, priority 2016, dated 2020)",
  "key": {"[1]": {"experiment": "radiochemical stability in vehicle by HPLC", "format": "physicochemical", "conditions": "room temperature, vehicle physiologic serum/ethanol 87.5/12.5", "method": "By this method, the final radiolabeled compound can be obtained with a radiochemical purity greater than 98% in 100-110 min with a yield that can reach 25% (decay corrected). It has been noticed that an uncompleted evaporation of the solvents used for the purification of [^18F]Fluoroethyltosylate hampers the second step and conducts to lower yields. Specific activity of productions was in the range of […]. The radiolabeled compound is stable in the conditions of formulation as radiochemical purity still greater than 95% 20 h after production with a storage at room temperature.\nAfter radiosynthesis, the stability of the radiotracer was evaluated by HPLC both in its vehicle and in rat plasma. Compound (I) was formulated in physiologic serum/ethanol with the respective proportion 87.5/12.5 (v/v). A mixture of compounds (I) (i.e. radiolabelled) and (Ia) (i.e. cold analogue) was stable for up to 20 hours at room temperature in its vehicle, only one peak being detected at the expected retention time. In rat plasma two peaks were detected: one at 3.15 minutes and one at 8.02 minutes (corresponding to a mixture of compounds (I) and (Ia)) after an incubation at +37° C. for 4 hours."}, "NCI-H1975 tumors": {"test_system": "NCI-H1975 tumors", "experiment": "tumor uptake in xenograft-bearing Nude rats", "format": "in vivo", "conditions": "NCI-H1975, at 180 min", "method": "(§1) Dynamic PET scan imaging and ex vivo gamma counting were performed on three cancer xenografts (NCI-H441, NCI-H3255, NCI-H1975) in Nude rats. Xenografts were initiated in athymic, Hsd:RH-Foxnlrnu rats (Harlan, The Netherlands) by subcutaneous injection of 2×10^7 cells in 200 μL RPMI 1640 in the left and right flanks. NCI-H3255 tumor cells were injected in the right flank and NCI-H441 or NCI-H1975 in the left flank. Each study consisted in two experiments on 18 or 19 rats, for a total of 113 rats. Injection of NCI-H3255 cells was performed on DO, 24 to 72 hours after a whole-body irradiation with a […] (5 Gy, ^60Co, BioMep SARL, Bretenières, France). […] Tumors were grown until a target volume of 500-1500 mm^3 for both tumors was reached, whenever possible. All procedures using animals were approved by the Animal Care and Use Committee of Oncodesign (CNREEA agreement No 91).\n(§2) The radiotracer solution was diluted in NaCl 0.9% to prepare a solution of activity 4-6 MBq (gamma-counting experiments) or 25-35 MBq (PET imaging experiments) in a volume of 300-400 or 600-800 μL, respectively. The radioactivity in the syringe was measured before and after tracer injection to determine the injected dose (ID) to animals. Rats were anesthetized with inhaled isoflurane (2% in air) for compound injection and throughout the course of image acquisition. After compound injection, rats were allowed to wake up and put back in their cage for an uptake period ranging from 20 to 120 minutes depending on the experiment.\n(§3) For ex vivo gamma counting, after the determined uptake period or after imaging, rats were euthanized by decapitation, and the following organs were harvested and weighed: tumor, kidneys, blood, liver, heart, tail, thigh muscle, lungs, spleen and skin. Tracer distribution was assessed by determining ^18F content in each tissue with a gamma-well counter (PerkinElmer 2480 Wizard2 3). Counting data are reported as % ID per gram of tissue (% ID/g). Once radioactivity in organs was measured, some samples were prepared for immunohistochemistry.\n(§4) For imaging experiments, rats were positioned prone in a dedicated rat imaging chamber (Minerve, France). Their body temperature was maintained by a flow of warm air through the structure of the imaging bed. PET imaging was performed on a microPET eXplore Vista CT (General Electric Healthcare) system. The Vista system, equipped with 36 dual-layer LYSO/GSO phoswich detector modules, has an effective axial/transaxial field of view of 4.8/6.7 cm. The spatial resolution is <2 mm in all directions and in the whole field of view. The sensitivity is above 2.5% in the whole field of view. After a scout image to adjust the position of the field of view, a CT scan was acquired (140 μA, 40 kV). […]"}, "NCI-H3255 tumors": {"test_system": "NCI-H3255 tumors", "experiment": "tumor uptake in xenograft-bearing Nude rats", "format": "in vivo", "method": "as §1, §2, §3, §4"}, "NCI-H441 tumors": {"test_system": "NCI-H441 tumors", "experiment": "tumor uptake in xenograft-bearing Nude rats", "format": "in vivo", "conditions": "NCI-H441, at 180 min", "method": "as §1, §2, §3, §4"}, "[2]": {"experiment": "biodistribution by ex vivo γ-counting in Sprague Dawley rats", "method": "To evaluate the biodistribution of the pure S (II) and R (III) enantiomers compared to compound (I), dynamic PET scan imaging and ex vivo gamma counting were performed on Sprague Dawley rats. Animals were injected with the radiotracer solution diluted in NaCl 0.9% to prepare a solution of activity 4-6 MBq (gamma-counting experiments) or 11-13 MBq (PET imaging experiments) in a volume of 300-400 or 600-800 μL, respectively. Radioactivity content in all biological samples was determined with scintillation γ-counter (Cobra 4180, Perkin-Elmer Inc.).\nAt the light of the biodistribution data of compound (I), the biodistribution of the R (III)- and S (II)-enantiomers was assessed by γ-counting in the organs in which the accumulation of compound (I) was prominent (that is: blood, heart, kidneys, liver, stomach, small intestine and colon). Two timepoints were selected: 5 and 30 minutes post-injection. […] The higher uptakes of R enantiomer (III) and S enantiomer (II) in these organs were expected to be observed at early timepoints after injection, giving the highest signals in the γ-counter and therefore making the comparison of biodistribution data more relevant. Besides, as PET images were acquired with compound (I), PET imaging was included in the evaluation of the biodistribution of R enantiomer and S enantiomer. This gave the opportunity to had one additional timepoint at 4 hours post-injection for collection of major organs and determination of radioactivity content by ex vivo γ-counting."}},
  "data": [
    {"smiles": "CC(C)C1NC(=O)Cc2ccc(Cl)cc2Nc2ncnc3cc(OCC[18F])c(cc23)OCCCNC1=O", "note": "(stereo not drawn) [Compound (I)]", "values": [
      {"measurement": "Radiochemical stability", "setting": "[1]", "value": ">20", "unit": "h"},
      {"measurement": "normalized uptake (tumor over muscle)", "setting": "NCI-H1975 tumors", "value": 3.6},
      {"measurement": "normalized uptake (tumor over muscle)", "setting": "NCI-H3255 tumors; NCI-H3255, at 180 min", "value": 12},
      {"measurement": "uptake in NCI-H3255 tumors", "setting": "NCI-H3255 tumors; stable between 90 min and 180 min", "value": "around 0.2 % ID/g"},
      {"measurement": "normalized uptake (tumor over muscle)", "setting": "NCI-H441 tumors", "value": 2.6},
      {"measurement": "uptake in liver", "setting": "[2]; 5 minutes post injection", "value": "1.66±0.43", "unit": "% ID/g"},
      {"measurement": "uptake in small intestine", "setting": "[2]; 5 minutes post injection", "value": "0.28±0.15", "unit": "% ID/g"},
      {"measurement": "uptake in blood", "setting": "[2]; 5 minutes post-injection", "value": "0.13±0.02", "unit": "% ID/g"},
      {"measurement": "uptake in heart", "setting": "[2]; 5 minutes post-injection", "value": "0.91±0.12", "unit": "% ID/g"},
      {"measurement": "uptake in kidneys", "setting": "[2]; 5 minutes post-injection", "value": "5.07±0.30", "unit": "% ID/g"},
      {"measurement": "uptake in stomach", "setting": "[2]; 5 minutes post-injection, unit printed as %", "value": "1.27±2.13", "unit": "%"},
      {"measurement": "uptake in liver", "setting": "[2]; 30 minutes post injection", "value": "0.37±0.07", "unit": "% ID/g"},
      {"measurement": "uptake in heart", "setting": "[2]; 30 minutes post-injection", "value": "0.23±0.05", "unit": "% ID/g"},
      {"measurement": "uptake in kidneys", "setting": "[2]; 30 minutes timepoint", "value": "1.47±0.36", "unit": "% ID/g"},
      {"measurement": "uptake in stomach", "setting": "[2]; 30 minutes timepoint", "value": "2.72±4.75", "unit": "% ID/g"},
      {"measurement": "uptake in colon", "setting": "[2]; four hours post-injection", "value": "10.55±4.53", "unit": "% ID/g"},
      {"measurement": "uptake in stomach", "setting": "[2]; four hours post-injection", "value": "0.14±0.23", "unit": "% ID/g"},
      {"measurement": "uptake in small intestine", "setting": "[2]; thirty minutes post-injection", "value": "0.40±0.40", "unit": "% ID/g"}
    ]}
  ]
}
